Data reported in patent US7014990B2, “Machine perfusion solution for organ and biological tissue preservation” (priority 2000, dated 2006).

Assay type: physicochemical
Method: A machine perfusion solution of the invention may be prepared by combining the components described above with sterile water, such as distilled and/or deionized water. For example, to prepare the solution, approximately 700–900 mL, or preferably about 800 mL, of sterile water is poured into a one liter beaker at approximately room temperature. Although a one liter beaker is used in this example, any other container of any size may be used to prepare the solution, where the component amounts would be adjusted accordingly. In the most preferred embodiment, the following are added, in any order, to the solution and each is mixed until dissolved in the solution: approximately […] sodium gluconate, approximately […] potassium phosphate, approximately […] adenine, approximately […] of ribose, approximately […] of calcium chloride, and approximately 50 g modified pentastarch. The modified pentastarch is a fractionated colloid mixture of 40–60 kDaltons in diameter and is modified by infusing the pentastarch under 3 atm of pressure through a dialyzing filter with a bore size of about 40–60 kDaltons. About […] magnesium gluconate, approximately […] HEPES, approximately […] glucose, and approximately […] mannitol are also added, in any order, and mixed. Approximately 40 U of insulin is also added. […]

CCCCC[C@H](O)/C=C/[C@H]1[C@H](O)CC(=O)[C@@H]1CCCCCCC(=O)O [modified PGE1, prostaglandin E1]
half-life lengthened by a multiple: about 15
